Data taken from ChEMBL document CHEMBL2429819, “Synthesis, antibacterial screening, and POM analyses of novel bis-isoxazolyl/pyrazolyl-1,3-diols” (2013).
Calls of active or inactive are those of the source. The rule behind the calls is not given here.

Columns and labels:
Assay type in all cases: functional
Details in all cases: for zone of inhibition at 100 µg/mL: read-out: DIZ
Proteus vulgaris = test: Antibacterial activity against Proteus vulgaris at 100 ug/ml after 24 hrs
Escherichia coli = test: Antibacterial activity against Escherichia coli at 100 ug/ml after 24 hrs
Bacillus subtilis = test: Antibacterial activity against Bacillus subtilis at 100 ug/ml after 24 hrs
Muscodor albus = test: Antibacterial activity against Muscodor albus at 100 ug/ml after 24 hrs

Structure (SMILES)	zone of inhibition at 100 µg/mL (Proteus vulgaris)	zone of inhibition at 100 µg/mL (Escherichia coli)	zone of inhibition at 100 µg/mL (Bacillus subtilis)	zone of inhibition at 100 µg/mL (Muscodor albus)	diameter of the inhibition zone (DIZ) (Proteus vulgaris)	diameter of the inhibition zone (DIZ) (Muscodor albus)	diameter of the inhibition zone (DIZ) (Escherichia coli)	diameter of the inhibition zone (DIZ) (Bacillus subtilis)
CC[C@H]1OC(=O)[C@H](C)[C@@H](O[C@H]2C[C@@](C)(OC)[C@@H](O)[C@H](C)O2)[C@H](C)[C@@H](O[C@@H]2O[C@H](C)C[C@H](N(C)C)[C@H]2O)[C@](C)(O)C[C@@H](C)C(=O)[C@H](C)[C@@H](O)[C@]1(C)O [ERYTHROMYCIN]	25.1 mm	27.4 mm	27.1 mm	26.1 mm	–	–	–	–
Oc1cc(O)c(-c2cc(-c3cccs3)on2)cc1-c1cc(-c2cccs2)on1	–	12.5 mm	13.2 mm	16 mm	inactive	–	–	–
Cc1ccc(C(=O)CC(=O)c2cc(C(=O)CC(=O)c3ccc(C)cc3)c(O)cc2O)cc1	12.6 mm	13.8 mm	16.2 mm	13.1 mm	–	–	–	–
Oc1cc(O)c(-c2cc(-c3ccc(Cl)cc3)on2)cc1-c1cc(-c2ccc(Cl)cc2)on1	13.2 mm	12.7 mm	13.7 mm	15 mm	–	–	–	–
COc1ccc(-c2cc(-c3cc(-c4cc(-c5ccc(OC)cc5)[nH]n4)c(O)cc3O)n[nH]2)cc1	–	12.1 mm	15.5 mm	14.4 mm	inactive	–	–	–
Oc1cc(O)c(-c2cc(-c3cccnc3)on2)cc1-c1cc(-c2cccnc2)on1	11.9 mm	12.4 mm	15.8 mm	16.1 mm	–	–	–	–
Cc1ccc(-c2cc(-c3cc(-c4cc(-c5ccc(C)cc5)[nH]n4)c(O)cc3O)n[nH]2)cc1	15.7 mm	14.7 mm	12.4 mm	–	–	inactive	–	–
Oc1cc(O)c(-c2cc(-c3cccnc3)[nH]n2)cc1-c1cc(-c2cccnc2)[nH]n1	15.4 mm	15.2 mm	14.2 mm	15.3 mm	–	–	–	–
NC[C@@H]1O[C@H](O[C@H]2[C@@H](O)[C@H](O[C@@H]3[C@@H](O)[C@H](N)C[C@H](N)[C@H]3O[C@H]3O[C@H](CN)[C@@H](O)[C@H](O)[C@H]3N)O[C@@H]2CO)[C@H](N)[C@@H](O)[C@@H]1O [FRAMYCETIN]	25.3 mm	26.1 mm	26.1 mm	25.8 mm	–	–	–	–
O=C(CC(=O)c1cc(C(=O)CC(=O)c2ccccc2)c(O)cc1O)c1ccccc1	13.3 mm	12.4 mm	15.8 mm	15.2 mm	–	–	–	–
O=C(CC(=O)c1cc(C(=O)CC(=O)c2cccs2)c(O)cc1O)c1cccs1	14.9 mm	15.5 mm	15.5 mm	14.9 mm	–	–	–	–
Cc1ccc(-c2cc(-c3cc(-c4cc(-c5ccc(C)cc5)on4)c(O)cc3O)no2)cc1	11.4 mm	–	12.7 mm	14.7 mm	–	–	inactive	–
Oc1cc(O)c(-c2cc(-c3cccs3)[nH]n2)cc1-c1cc(-c2cccs2)[nH]n1	15.3 mm	15.4 mm	–	11.7 mm	–	–	–	inactive
O=C(CC(=O)c1cc(C(=O)CC(=O)c2cccnc2)c(O)cc1O)c1cccnc1	14.2 mm	16.4 mm	11.9 mm	15.7 mm	–	–	–	–
Oc1cc(O)c(-c2cc(-c3ccccc3)on2)cc1-c1cc(-c2ccccc2)on1	15.2 mm	17 mm	11.2 mm	–	–	inactive	–	–
COc1ccc(-c2cc(-c3cc(-c4cc(-c5ccc(OC)cc5)on4)c(O)cc3O)no2)cc1	15.4 mm	14.3 mm	16.5 mm	15.9 mm	–	–	–	–
O=C(CC(=O)c1cc(C(=O)CC(=O)c2ccc(Cl)cc2)c(O)cc1O)c1ccc(Cl)cc1	11 mm	–	13.2 mm	15 mm	–	–	inactive	–
COc1ccc(C(=O)CC(=O)c2cc(C(=O)CC(=O)c3ccc(OC)cc3)c(O)cc2O)cc1	–	11.4 mm	14.9 mm	16.1 mm	inactive	–	–	–
Oc1cc(O)c(-c2cc(-c3ccccc3)[nH]n2)cc1-c1cc(-c2ccccc2)[nH]n1	15.2 mm	15.2 mm	12.2 mm	14 mm	–	–	–	–
Oc1cc(O)c(-c2cc(-c3ccc(Cl)cc3)[nH]n2)cc1-c1cc(-c2ccc(Cl)cc2)[nH]n1	15.7 mm	15 mm	16.2 mm	15.7 mm	–	–	–	–
